Laboratory results: the NIST ThermoML archive (doi:10.1016/j.fluid.2018.02.015)
Numbers after ± are expanded uncertainties.

Experiments:
[1] = 99.9 kPa, Liquid, Vibrating tube method
[2] = refractive index (Na D-line) (dimensionless); details: 99.9 kPa, Liquid, Standard Abbe refractometry

| mass density ([1]; 293.15 K) | mass density ([1]; 294.15 K) | mass density ([1]; 295.15 K) | mass density ([1]; 296.15 K) | mass density ([1]; 297.15 K) | mass density ([1]; 298.15 K) | mass density ([1]; 299.62 K) | refractive index ([2]; 293.15 K) | refractive index ([2]; 298.15 K) | mass density ([1]; 299.75 K) | SMILES |
| --- | --- | --- | --- | --- | --- | --- | --- | --- | --- | --- |
| 729.762 ± 0.33 kg/m3 | 728.496 ± 0.29 kg/m3 | 727.738 ± 0.26 kg/m3 | 726.983 ± 0.26 kg/m3 | 726.227 ± 0.26 kg/m3 | 725.467 ± 0.26 kg/m3 | 724.355 ± 0.26 kg/m3 | 1.41196 ± 0.0005 | 1.40964 ± 0.0005 |  | CCCCCCCCCC [decane] |
| 717.883 ± 0.33 kg/m3 | 716.601 ± 0.29 kg/m3 | 715.824 ± 0.26 kg/m3 | 715.045 ± 0.26 kg/m3 | 714.268 ± 0.25 kg/m3 | 713.689 ± 0.24 kg/m3 |  | 1.40595 ± 0.00049 | 1.40329 ± 0.00049 |  | CCCCCCCCC [nonane] |
| 739.96 ± 0.29 kg/m3 |  | 737.96 ± 0.27 kg/m3 |  | 736.48 ± 0.25 kg/m3 | 735.73 ± 0.25 kg/m3 |  | 1.41726 ± 0.00049 | 1.41502 ± 0.00049 | 734.56 ± 0.25 kg/m3 | CCCCCCCCCCC [undecane] |
